Results as given in the NIST ThermoML archive (doi:10.1021/je900131q).
Where “and” joins values, the source holds several entries; their conditions need not be identical. Equal entries are not always repeated.

Conditions: Fluid (supercritical or subcritical phases); for mass density: Buoyancy - hydrostatic balance with magnetic suspension - one sinker; for viscosity: Vibrating wire viscometer

N#N [nitrogen]
Conditions | mass density | viscosity [mPa·s]
293.11 K, 1737.3 kPa | 20.04 kg/m3 | 0.01776
293.11 K, 8684.1 kPa | 100.062 kg/m3 | 0.01931
293.11 K, 12288 kPa | 140.108 kg/m3 | 0.02039
293.12 K, 3456.5 kPa | 39.956 kg/m3 | 0.01807
293.12 K, 5188.4 kPa | 60.007 kg/m3 | 0.01843
293.12 K, 6932.1 kPa | 80.084 kg/m3 | 0.01884
293.12 K, 16079 kPa | 180.081 kg/m3 | 0.02168
293.12 K, 22359 kPa | 240.226 kg/m3 | 0.02399
293.12 K, 24666 kPa | 260.273 kg/m3 | 0.0249
293.13 K, 14176 kPa | 160.309 kg/m3 | 0.02101
293.14 K, 1741.7 kPa | 20.088 kg/m3 | 0.01775
293.14 K, 5190.1 kPa | 60.028 kg/m3 | 0.01841
293.14 K, 5191.3 kPa | 60.033 kg/m3 | 0.0184
293.14 K, 6919.8 kPa | 79.938 kg/m3 | 0.01881
293.14 K, 6919.9 kPa | 79.937 kg/m3 | 0.01881
293.14 K, 18079 kPa | 200.088 kg/m3 | 0.02238
293.15 K, 168.17 kPa | 1.9327 kg/m3 | 0.01754
293.15 K, 257.03 kPa | 2.9592 kg/m3 | 0.01755
293.15 K, 257.04 kPa | 2.9569 kg/m3 | 0.01755
293.15 K, 260.16 kPa | 2.9879 kg/m3 | 0.01754
293.15 K, 348.59 kPa | 4.0063 kg/m3 | 0.01757
293.15 K, 348.6 kPa | 4.0116 kg/m3 | 0.01756
293.15 K, 434.63 kPa | 4.9978 kg/m3 | 0.01756
293.15 K, 438.44 kPa | 5.0442 kg/m3 | 0.01758
293.15 K, 438.45 kPa | 5.045 kg/m3 | 0.01758
293.15 K, 865.03 kPa | 9.9564 kg/m3 | 0.01763
293.15 K, 865.04 kPa | 9.9572 kg/m3 | 0.01763
293.15 K, 867.69 kPa | 9.9877 kg/m3 | 0.01763
293.15 K, 3452.3 kPa | 39.892 kg/m3 | 0.01805
293.15 K, 8683.4 kPa | 100.04 kg/m3 | 0.01928
293.16 K, 87.06 kPa | 1.0006 kg/m3 | 0.0175
293.16 K, 174.08 kPa | 2.0011 kg/m3 | 0.01753
293.16 K, 6917.3 kPa | 79.905 kg/m3 | 0.01881
293.16 K, 8683.4 kPa | 100.03 kg/m3 | 0.01928
293.16 K, 10467 kPa | 120.042 kg/m3 | 0.01983
293.16 K, 10724 kPa | 122.91 kg/m3 and 122.9 kg/m3 | 0.01987
293.16 K, 20166 kPa | 220.109 kg/m3 | 0.02316
293.16 K, 27067 kPa | 279.903 kg/m3 | 0.02585
293.16 K, 30306 kPa | 304.692 kg/m3 | 0.02713
293.17 K, 347.38 kPa | 3.995 kg/m3 | 0.01756
293.17 K, 434.86 kPa | 5.0007 kg/m3 | 0.01757
293.17 K, 30306 kPa | 304.691 kg/m3 | 0.02714
293.18 K, 69.62 kPa | 0.79943 kg/m3 | 0.01749
423.09 K, 1261.4 kPa | 9.9995 kg/m3 | 0.02309
423.09 K, 2533.5 kPa | 20.001 kg/m3 | 0.0232
423.09 K, 7760.6 kPa | 60.009 kg/m3 | 0.02382
423.09 K, 19172 kPa | 140.043 kg/m3 | 0.02569
423.09 K, 25569 kPa | 180.07 kg/m3 | 0.02695
423.1 K, 377.31 kPa | 2.9994 kg/m3 | 0.02301
423.1 K, 629.65 kPa | 5.0007 kg/m3 | 0.02304
423.1 K, 5117.5 kPa | 40.01 kg/m3 | 0.02347
423.1 K, 22320 kPa | 160.186 kg/m3 | 0.02629
423.11 K, 100.56 kPa | 0.79993 kg/m3 | 0.02294
423.11 K, 125.69 kPa | 0.99956 kg/m3 | 0.02295
423.11 K, 251.45 kPa | 1.9998 kg/m3 | 0.02299
423.11 K, 10470 kPa | 79.969 kg/m3 | 0.0242
423.11 K, 13263 kPa | 99.939 kg/m3 | 0.02464
423.12 K, 503.26 kPa | 3.9997 kg/m3 | 0.02303
423.12 K, 16171 kPa | 120.044 kg/m3 | 0.02513
423.15 K, 30228 kPa | 206.995 kg/m3 | 0.02791
423.15 K, 30257 kPa | 207.176 kg/m3 | 0.02792
423.16 K, 30225 kPa | 206.975 kg/m3 | 0.02791
